The target of assay [1] is T1, MmRadA (Methanococcus maripaludis, UniProt P0CW58).
T1 construct: gene radA; full open reading frame in pET28a (NcoI/XhoI), expressed in E. coli BL21 Rosetta2 (DE3); no tag mentioned; helical filament, nucleotide buried between adjacent monomers; P-loop Gly105-Thr112, His280, Asp302
Nature of the assay: X-ray crystallography, […]-2.[…] A. Type of assay: binding. To be noted: Mg2+, pH 7.9; 0.4 M NH4Cl (3ewa), 0.4 M KCl (3ew9) or 0.1 M NH4Cl (3etl); ATPase site at the monomer interface.

The target of assay [2] is T1, MmRadA. Nature of the assay: Malachite Green phosphate release (ATPase). Type of assay: biochemical. The settings on record: 5 mM ATP, 10 mM MgCl2, pH 7.4, 100 mM KCl, poly-(dT)36 ssDNA; mere turnover.

The structures appear in SMILES notation.

T1 sequence (P0CW58 whole entry): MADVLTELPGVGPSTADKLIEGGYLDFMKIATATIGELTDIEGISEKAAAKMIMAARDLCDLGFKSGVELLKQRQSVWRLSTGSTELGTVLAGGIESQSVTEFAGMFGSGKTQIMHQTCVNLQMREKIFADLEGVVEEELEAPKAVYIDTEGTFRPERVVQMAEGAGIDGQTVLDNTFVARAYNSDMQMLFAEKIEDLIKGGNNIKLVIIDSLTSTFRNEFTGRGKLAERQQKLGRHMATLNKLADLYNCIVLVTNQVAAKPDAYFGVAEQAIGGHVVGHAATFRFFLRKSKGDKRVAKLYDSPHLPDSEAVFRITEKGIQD

Regarding `Nc1ncnc2c1ncn2[C@@H]1O[C@H](COP(=O)(O)OP(=O)(O)NP(=O)(O)O)[C@@H](O)[C@H]1O` [AMPPNP], at MmRadA [1], the “X-ray crystallography, 2.0-2.4 A” value is “The nonhydrolyzable ATP analogue AMPPNP is buried between the MmRadA monomers as expected”.
As to `Nc1ncnc2c1ncn2[C@@H]1O[C@H](COP(=O)(O)OP(=O)(O)OP(=O)(O)O)[C@@H](O)[C@H]1O` [ATP], the “Malachite Green phosphate release (ATPase)” value at MmRadA [2] is reported as “the M. maripaludis protein also actively catalyzed ATP hydrolysis in the presence of potassium”.

Source of the values: article PMC2685736, “Conservation of a conformational switch in RadA recombinase from Methanococcus maripaludis” (Acta Crystallographica Section D: Biological Crystallography, 2009).
